The text below walks through data of US10421761B2, “Compounds for kinase modulation, and indications therefor” (Plexxikon Inc., priority 2013, dated 2019).

The structures appear in SMILES notation.

For assay [1], the system named is A375 (BRAF V600E) cell line. The assay is described as follows: A375 P-ERK inhibition assay (AlphaScreen). The format is cell-based, human. The note with it: Homo sapiens, A-375; A375_P-ERK. The method in brief:
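A375 cells treated with 8-point compound titration for 1 h at 37° C, then lysed. ERK1/2 Thr202/Tyr204 phosphorylation measured by AlphaScreen, using biotinylated total-ERK antibody on donor beads and phospho-specific antibody on acceptor beads.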

The subject of assay [2] is IPC-298 (NRAS Q61L) cell line. In words: IPC-298 P-ERK cell activation assay (AlphaScreen). The note with it: Homo sapiens; P-ERK cell activation, IPC-298; numeric bounds; read-out: Cell activity (EC50 μM) IPC-298_P-ERK. The format is cell-based, human. In short, it runs like this:
(§1)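 Mouse B9 (HRAS-driven skin SCC) or human IPC-298 melanoma cells treated with an 8-point compound titration for one hour at 37° C., then lysed. ERK1/2 phosphorylation at Thr202/Tyr204 read by AlphaScreen with total-ERK and phospho-ERK antibodies.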

The target in the next assay is T1, BRAF V600E (Homo sapiens, UniProt P15056, V600E).
T1 construct: purchased Upstate Biotechnology
T1 sequence (P15056 whole entry V600E): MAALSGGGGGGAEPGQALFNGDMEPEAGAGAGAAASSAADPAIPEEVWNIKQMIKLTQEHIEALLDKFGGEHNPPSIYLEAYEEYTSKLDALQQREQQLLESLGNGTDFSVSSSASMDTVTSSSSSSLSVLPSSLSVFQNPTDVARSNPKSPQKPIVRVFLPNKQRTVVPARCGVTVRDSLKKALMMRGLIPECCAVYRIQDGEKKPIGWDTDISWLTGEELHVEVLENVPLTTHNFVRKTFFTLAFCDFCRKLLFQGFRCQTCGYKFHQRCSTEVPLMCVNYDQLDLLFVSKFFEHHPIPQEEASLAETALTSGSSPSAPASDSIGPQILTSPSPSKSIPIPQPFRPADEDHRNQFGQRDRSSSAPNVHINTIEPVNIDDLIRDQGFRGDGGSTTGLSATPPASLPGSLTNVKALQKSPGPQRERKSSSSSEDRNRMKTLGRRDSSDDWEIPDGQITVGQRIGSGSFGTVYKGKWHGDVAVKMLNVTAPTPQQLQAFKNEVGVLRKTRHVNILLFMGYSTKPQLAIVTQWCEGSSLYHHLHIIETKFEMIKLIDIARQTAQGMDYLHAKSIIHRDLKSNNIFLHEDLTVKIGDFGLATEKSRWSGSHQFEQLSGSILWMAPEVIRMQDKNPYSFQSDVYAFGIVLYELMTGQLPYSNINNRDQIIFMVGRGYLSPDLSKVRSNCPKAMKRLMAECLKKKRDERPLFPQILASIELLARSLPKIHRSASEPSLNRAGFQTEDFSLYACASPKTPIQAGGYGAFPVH
In words: BRAF V600E biochemical kinase activity assay (AlphaScreen, biotin-MEK1 substrate). The note with it: BRAF V600E biochemical inhibitory activity.

In a further assay the test system is B9 (HRAS Q61L) cell line. In words: B9 P-ERK cell activation assay (AlphaScreen). The format is cell-based, mouse. The note with it: Mus musculus; P-ERK cell activation, B9; numeric bounds; read-out: Cell activity (EC50 μM) B9_pERK. In short, it runs like this: as §1
On the technique in general: In Alpha technology, singlet oxygen from a donor bead excites a nearby acceptor bead.

The IC50 is the midpoint of a concentration-inhibition curve. Lower therefore signals greater potency in that assay. As a reminder, the EC50 is the concentration needed to bring the measured effect to its halfway point. Consider `CCN(C)S(=O)(=O)Nc1ccc(F)c(C(=O)c2c[nH]c3ncnc(NCC4CC4)c23)c1F` [P-2061, 4-(cyclopropylmethylamino)-5-[3-[[ethyl(methyl)sulfamoyl]amino]-2,6-difluoro-benzoyl]-7H-pyrrolo[2,3-d]pyrimidine], for which the IC50 (in assay [1]; against BRAF V600E) was 0.0001 to 1 µM throughout. In addition, the EC50 (in assay [2]; in the assay with B9 (HRAS Q61L) cell line) was > 10 µM throughout.

`Cc1ncnc2[nH]cc(C(=O)c3cccc(NS(=O)(=O)N4CCCC4)c3F)c12` [P-2076, N-[2-fluoro-3-(4-methyl-7H-pyrrolo[2,3-d]pyrimidine-5-carbonyl)phenyl]pyrrolidine-1-sulfonamide]: the IC50 (in assay [1]; against BRAF V600E) was 0.0001 to 1 µM throughout. Further, the EC50 (in assay [2]; in the assay with B9 (HRAS Q61L) cell line) was > 10 µM throughout.

In the case of `CCCNc1ncnc2[nH]cc(C(=O)c3c(F)ccc(NS(=O)(=O)N(C)CC)c3F)c12` [P-2099, 5-[3-[[ethyl(methyl)sulfamoyl]amino]-2,6-difluoro-benzoyl]-4-(propylamino)-7H-pyrrolo[2,3-d]pyrimidine], the IC50 (in assay [1]; against BRAF V600E) was 0.0001 to 1 µM in each case. Also, the EC50 (in assay [2]; in the assay on B9 (HRAS Q61L) cell line) was > 10 µM each time.

For the molecule `O=C(c1c(F)ccc(NS(=O)(=O)C2CCCC2)c1F)c1c[nH]c2nccc(Cl)c12` [P-2015, N-[3-(4-chloro-1H-pyrrolo[2,3-b]pyridine-3-carbonyl)-2,4-difluoro-phenyl]cyclopentanesulfonamide], the IC50 is > 10 µM in assay [1] and 0.0001 to 1 µM against BRAF V600E. The concentration for a half-maximal effect (EC50) (in assay [2]; in the assay with B9 (HRAS Q61L) cell line) was > 10 µM each time.

Consider `CCN(C)S(=O)(=O)Nc1cccc(C(=O)c2c[nH]c3ncnc(C)c23)c1F` [P-2090, 5-[3-[[ethyl(methyl)sulfamoyl]amino]-2-fluoro-benzoyl]-4-methyl-7H-pyrrolo[2,3-d]pyrimidine], for which the half-maximal inhibitory concentration (IC50) (in assay [1]; against BRAF V600E) was 0.0001 to 1 µM in each case. The EC50 (in assay [2]; with B9 (HRAS Q61L) cell line) was > 10 µM throughout.

On to `O=C(c1cc(C(F)(F)F)cc(NS(=O)(=O)N2CCCC2)c1F)c1c[nH]c2ncc(-c3cnc(C4CC4)nc3)cc12` [P-2179, N-[3-[5-(2-cyclopropylpyrimidin-5-yl)-1H-pyrrolo[2,3-b]pyridine-3-carbonyl]-2-fluoro-5-(trifluoromethyl)phenyl]pyrrolidine-1-sulfonamide], for which the IC50 in assay [1] was > 10 µM; at BRAF V600E it was 1 to 10 µM. For the same molecule, the EC50 (in assay [2]; in the assay with B9 (HRAS Q61L) cell line) was > 10 µM each time.

With `CCN(C)S(=O)(=O)Nc1cccc(C(=O)c2c[nH]c3ncnc(NCC4CC4)c23)c1F` [P-2064, 4-(cyclopropylmethylamino)-5-[3-[[ethyl(methyl)sulfamoyl]amino]-2-fluoro-benzoyl]-7H-pyrrolo[2,3-d]pyrimidine], the half-inhibitory concentration (IC50) (in assay [1]; at BRAF V600E) was 0.0001 to 1 µM throughout. Further, the EC50 (in assay [2]; in the assay on B9 (HRAS Q61L) cell line) was > 10 µM each time.

With `CCN(C)S(=O)(=O)Nc1ccc(F)c(C(=O)c2c[nH]c3ncnc(NCCCOC)c23)c1F` [P-2116, 5-[3-[[ethyl(methyl)sulfamoyl]amino]-2,6-difluoro-benzoyl]-4-(3-methoxypropylamino)-7H-pyrrolo[2,3-d]pyrimidine], the IC50 (in assay [1]; at BRAF V600E) was 0.0001 to 1 µM each time. The EC50 (in assay [2]; with B9 (HRAS Q61L) cell line) was > 10 µM throughout.

Take `O=C(c1cccc(NS(=O)(=O)N2CCCC2)c1F)c1c[nH]c2ncnc(NCC3CC(O)C3)c12` (stereo not drawn) [P-2098, N-[2-fluoro-3-[4-[(3-hydroxycyclobutyl)methylamino]-7H-pyrrolo[2,3-d]pyrimidine-5-carbonyl]phenyl]pyrrolidine-1-sulfonamide]: the IC50 (in assay [1]; at BRAF V600E) was 0.0001 to 1 µM each time. In addition, the EC50 (in assay [2]; with B9 (HRAS Q61L) cell line) was > 10 µM throughout.
